# Test results as given in US20250129021A1, “SMALL MOLECULE PROTEIN SYNTHESIS MODULATORS” (Interdict Bio, Inc., priority 2023, published 2025).
# What was measured:
# Format in all cases: biochemical
# MYC = assay: In vitro transcription-translation (IVTT) assay, MYC reporter; settings: IVTT assay, HeLa S3 lysate, MYC reporter, normalized sfGFP/mCherry ratio; half-log dilutions 30 μM-0.1 μM, 2 hrs at 30° C.
# Excerpt: (§1) All reporter constructs have been cloned into the pT7CFE1-CHis plasmid (ThermoFisher #88860) using Gibson assembly procedures (NEB #E2611L). The parental pT7CFE1-CHis plasmid contains an EMCV IRES at the 5′UTR for translation initiation, a multiple-cloning site (MCS) for gene insertion, an optional C-terminal His-epitope tag, and polyA sequence in the 3′UTR to regulate mRNA stability. All reporters are designed to be inserted at the MCS to include a red fluorescent protein (mCherry), P2A self-cleaving peptide which releases the preceding mCherry protein product, and a fusion open reading frame containing a 3×FLAG epitope, a peptide sequence of interest (TEST), and green fluorescent protein (sfGFP).
# (§2) Construct Plasmid Preparation: All plasmids are isolated from MACH1 cells (ThermoFisher) grown overnight in ampicillin-containing luria broth, and purified using ZymoPure Express Plasmid Midiprep Kit (Zymo Research). Constructs are sequenced verified and diluted to a working concentration of 110 ng/μL.
# (§3) HeLa S3 Lysate Preparation: HeLa S3 cell pellets are acquired from Ipracell/Ipratech (Belgium) and shipped as 4 mL frozen cell pellets on dry ice for storage at −80° C. until use. The procedure for lysate preparation is as follows. Prepare 1× Lysis Buffer, cold and stored on ice:
# (§4) Each preparation takes 8 cell pellets (4 ml packed volume each, approximately 1.0×10^9 cells per pellet). Thaw cell pellets from −80° C. on ice for 90 mins. Lay pellets horizontally on top of the ice and rotate every 30 mins to ensure even thawing. Once thawed, add 4 mL of cold lysis buffer to each pellet, and using a serological pipet, gently pipet up and down to break up clumps. Incubate resuspended cells in ice for an additional 30 mins (plunged into ice). During 30 min incubation, rinse and RNase-zap (Ambion) glass dounces (use loose pestle “A”), gently dry and place on ice until needed. Prepare RNase-free Eppendorf tubes for spinning and for batch storage. Add batch labels to 1.5-1.7 mL RNase-free microcentrifuge tubes (labeling scheme below). Each batch will have an extra 1.5-1.7 mL RNase-free microcentrifuge tube for 40 μL of lysate, label the top of this tube (labeling scheme below). After 30 min incubation, transfer all 8 mL of cell pellet to dounce. Cell lysis is complete after douncing 100 times. Aliquot cell lysis into 1.5-1.7 mL temporary-microcentrifuge tubes. Place tubes in centrifuge with “fins” out, and spin at 1,200×g for 5 mins. After the first spin use a 1 mL pipet to resuspend each tube and repeat spin. This acts as an additional lysis step, is more vigorous and increases lysate yield. During second spin get liquid N2 and a fresh conical tube on ice. After spin is complete, transfer supernatant (lysate) from microcentrifuge tubes into the 50 mL conical tube and keep on ice. Repeat steps 10-14 for all other cell pellets until completed. Once all cell lysate has been transferred to the 50 mL conical tube pipet to mix so the solution is homogenous. Transfer 1 mL of lysate into batch-labeled microcentrifuge tubes and flash freeze in liquid nitrogen. Be sure to pipet up and down to mix throughout transfer step. Place all tubes in the […] for long-term storage.
# (§5) In vitro transcription-translation assay setup: Each assay includes a master mix containing lysate and shared components, a 96-well plate containing compound titrations for testing, a 96-well DNA plate with reporter constructs to be tested, 96-well skirted PCR plates, and 96-well flat-bottom, black, fluorescent assay plates. […]
# CCND1 = assay: In vitro transcription-translation (IVTT) assay, CCND1 reporter; settings: IVTT, HeLa S3 lysate, 2 hrs at 30° C.
# Excerpt: as §1, §2, §3, §4, §5
# MCL-1 = assay: In vitro transcription-translation (IVTT) assay, MCL-1 reporter; settings: IVTT, HeLa S3 lysate, 2 hrs at 30° C.; read-out: MCL1 IC50
# Excerpt: as §1, §2, §3, §4, §5
# CCNTB1 = assay: In vitro transcription-translation (IVTT) assay, CCNTB1 reporter; settings: HeLa S3 lysate, 2 hrs at 30° C.
# Protocol: as §4
# In vitro transcription-translation assay setup: Each assay includes a master mix containing lysate and shared components, a 96-well plate containing compound titrations for testing, a 96-well DNA plate with reporter constructs to be tested, 96-well skirted PCR plates, and 96-well flat-bottom, black, fluorescent assay plates. Reaction materials setup: (A) Master mix—15 mL conical tube (3 mL of HeLa S3 Lysate described above; 0.6 mL of ThermoFisher Accessory Proteins (#88882); 1.2 ml of ThermoFisher Reaction Mix (#88882); 0.54 mL of nuclease-free Water); (B) 96-Well Master Mix+Compound Plate (Half-log dilutions (30 μM−0.1 μM) of 4 compounds of interest are prepared in 100% DMSO); 96-Well DNA Plate (Five DNA constructs are plated into single columns within the plate. Row 1 of the column contains nuclease free H2O, all other wells contain 110 ng/μL plasmid DNA). Reactions are started by mixing 155 μL of master mix and 3.5 μL of compound serial dilutions, then 9.1 μL of master mix+compound mixture is aliquoted across 5 96-well plates. Reactions begin with final addition of 2 μL of DNA for a 11.1 μL reaction volume in each well. The entire plate is sealed, and incubated for 2 hrs at 30° C. After 2 hrs, quench the assay using 45 μL of PBS, and transfer 50 μL to a flat-bottom black microplate Quantify the sfGFP and mCherry signals from each well on each plate, taking 3 reads of each plate, and perform data analysis below.
# In vitro transcription-translation assay data analysis: Each plate is read three times in channels for both sfGFP and mCherry signals. The average signal across these 3 reads is then calculated for further analysis. Control wells containing no DNA reporter are subtracted from reporter wells in the same column to remove auto-fluorescence of the lysate. Then, the ratio of sfGFP/mCherry is calculated per well, and these ratios are averaged across the triplicate experiments on the same plate. Finally, the ratio of each titration concentration is normalized to the no drug control to create the normalized stalling metric. […]
SMILES,IC50 (MYC) [µM],IC50 (CCND1) [µM],IC50 (MCL-1) [µM],IC50 (CCNTB1) [µM]
"COc1ccc(C[C@H]2NC[C@H](O)[C@H]2OC(=O)NCC[C@@H]2CCCN2)cc1 [V188341, (2R,3S,4S)-4-hydroxy-2-[(4-methoxyphenyl)methyl]pyrrolidin-3-yl N-{2-[(2S)-pyrrolidin-2-yl]ethyl}carbamate]",< 10,< 10,< 10,< 10
"Cn1cc(-c2ccc(C[C@H]3NC[C@H](O)[C@H]3OC(=O)NCc3ccccc3)cc2)nn1 [V188392, (2R,3S,4S)-4-hydroxy-2-{[4-(1-methyl-1,2,3-triazol-4-yl)phenyl]methyl}pyrrolidin-3-yl N-benzylcarbamate]",< 10,< 10,< 10,< 10
"COc1ccc(C[C@H]2NC[C@H](O)[C@H]2OC(=O)NCc2ccc(NS(C)(=O)=O)cc2)cc1 [V191955, (2R,3S,4S)-4-hydroxy-2-[(4-methoxyphenyl)methyl]pyrrolidin-3-yl N-[(4-methanesulfonamidophenyl)methyl]carbamate]",< 10,< 10,< 10,< 10
"O=C(NCc1ccccc1)O[C@@H]1[C@@H](O)CN[C@@H]1Cc1ccc(-c2c[nH]nn2)cc1 [V188331, (2R,3S,4S)-4-hydroxy-2-{[4-(1H−1,2,3-triazol-4-yl)phenyl]methyl}pyrrolidin-3-yl N-benzylcarbamate]",< 10,< 10,< 10,< 10
"O=C(NCC[C@@H]1CCCN1)O[C@@H]1[C@@H](O)CN[C@@H]1Cc1ccc(-c2ccc(F)c(F)c2)cc1 [V191962, (2R,3S,4S)-2-({3′,4′-difluoro-[1,1′-biphenyl]-4-yl}methyl)-4-hydroxypyrrolidin-3-yl N-{2-[(2S)-pyrrolidin-2-yl]ethyl}carbamate]",> 30,> 30,> 30,> 30
"COc1ccc(C[C@H]2NC[C@H](O)[C@H]2OC(=O)NCc2ccc(C3CNC3)cc2)cc1 [V190559, (2R,3S,4S)-4-hydroxy-2-[(4-methoxyphenyl)methyl]pyrrolidin-3-yl N-{[4-(azetidin-3-yl)phenyl]methyl}carbamate]",< 10,< 10,< 10,< 10
"COc1ccc(C[C@H]2NC[C@H](O)[C@H]2OC(=O)NCC[C@@H]2CCC3(CC3)N2)cc1 [V191945, (2R,3S,4S)-4-hydroxy-2-[(4-methoxyphenyl)methyl]pyrrolidin-3-yl N-{2-[(5S)-4-azaspiro[2.4]heptan-5-yl]ethyl}carbamate]",< 10,10 to 20,< 10,< 10
"COc1ccc(C[C@H]2NC[C@H](O)[C@H]2OC(=O)NCc2ccc(C3CC3)cc2)cc1 [V188321, (2R,3S,4S)-4-hydroxy-2-[(4-methoxyphenyl)methyl]pyrrolidin-3-yl N-[(4-cyclopropylphenyl)methyl]carbamate]",> 30,> 30,10 to 20,10 to 20
"COc1ccc(C[C@H]2NC[C@H](O)[C@H]2OC(=O)NCC=C(C)C)cc1 [V190411, (2R,3S,4S)-4-hydroxy-2-[(4-methoxyphenyl)methyl]pyrrolidin-3-yl N-(3-methylbut-2-en-1-yl)carbamate]",10 to 20,10 to 20,10 to 20,< 10
"O=C(NCc1cccc(F)c1)O[C@@H]1[C@@H](O)CN[C@@H]1Cc1ccc(F)cc1 [V190506, (2R,3S,4S)-2-[(4-fluorophenyl)methyl]-4-hydroxypyrrolidin-3-yl N-[(3-fluorophenyl)methyl]carbamate]",< 10,10 to 20,< 10,< 10
"O=C(NCC[C@@H]1CCCN1)O[C@@H]1[C@@H](O)CN[C@@H]1Cc1ccc(-c2ccccc2)cc1 [V190505, (2R,3S,4S)-2-{[1,1′-biphenyl]-4-ylmethyl}-4-hydroxypyrrolidin-3-yl N-{2-[(2S)-pyrrolidin-2-yl]ethyl}carbamate]",< 10,< 10,< 10,< 10
"COc1ccc(C[C@H]2NC[C@H](O)[C@H]2OC(=O)NCc2cccc(F)c2)cc1 [V188379, (2R,3S,4S)-4-hydroxy-2-[(4-methoxyphenyl)methyl]pyrrolidin-3-yl N-[(3-fluorophenyl)methyl]carbamate]",< 10,< 10,< 10,< 10
"COc1ccc(C[C@H]2NC[C@H](O)[C@H]2OC(=O)NCC2COC2)cc1 [V188299, (2R,3S,4S)-4-hydroxy-2-[(4-methoxyphenyl)methyl]pyrrolidin-3-yl N-(oxetan-3-ylmethyl)carbamate]",< 10,10 to 20,< 10,< 10
"COc1ccc(C[C@H]2NC[C@H](O)[C@H]2OC(=O)NCCc2cnoc2)cc1 [V190449, (2R,3S,4S)-4-hydroxy-2-[(4-methoxyphenyl)methyl]pyrrolidin-3-yl N-[2-(1,2-oxazol-4-yl)ethyl]carbamate]",< 10,< 10,< 10,< 10
"O=C(NCC[C@@H]1CCCN1)O[C@@H]1[C@@H](O)CN[C@@H]1Cc1ccc(F)cc1 [V191886, (2R,3S,4S)-2-[(4-fluorophenyl)methyl]-4-hydroxypyrrolidin-3-yl N-{2-[(2S)-pyrrolidin-2-yl]ethyl}carbamate]",< 10,< 10,< 10,< 10
"COc1ccc(C[C@H]2NC[C@H](O)[C@H]2OC(=O)NCc2ccccc2F)cc1 [V190520, (2R,3S,4S)-4-hydroxy-2-[(4-methoxyphenyl)methyl]pyrrolidin-3-yl N-[(2-fluorophenyl)methyl]carbamate]",< 10,10 to 20,< 10,< 10
"COc1ccc(C[C@H]2NC[C@H](O)[C@H]2OC(=O)NCc2ccccc2C#N)cc1 [V191911, (2R,3S,4S)-4-hydroxy-2-[(4-methoxyphenyl)methyl]pyrrolidin-3-yl N-[(2-cyanophenyl)methyl]carbamate]",< 10,10 to 20,< 10,< 10
